Source: patent US10363229B2, “Methods and compositions for the treatment of cancer” (priority 2009, dated 2019)

How the values were obtained:
[1] = tested on: Mouse breast cancer cells (66Cl-1); assay: Effects of methyl sulfone on estrogen receptor-negative breast cancer cells; type: cell-based
Protocol: Cloudman S-91 mouse melanoma cells (sub-clone M-3, CCL 53.1; American Type Culture Collection, Rockville, Md.) were grown in RMPI medium supplemented with 10% fetal bovine serum (Invitrogen, Inc) and 5% penicillin-streptomycin (Invitrogen, Inc). Mouse breast cancer cells (66Cl-1; American Type Culture Collection, Rockville, Md.) that are estrogen-receptor negative were grown in DMEM medium supplemented with 10% fetal bovine serum (Invitrogen, Inc) and 5% penicillin/streptomycin (Invitrogen, Inc). Human T-cell leukemic lymphocytes (CEM; American Type Culture Collection, Rockville, Md.) were grown in MEM medium supplemented with 7% fetal calf serum. Cultures were passaged twice a week. […]
Cells were plated onto sterile 12 mm coverslips in 35 mm tissue culture plates and incubated at 37° C., 5% CO2. After 24 hours, 2% methyl sulfone in medium or medium alone was added the plates and incubated at 37° C., 5% CO2 for 48 and 72 hrs. BrdU (Molecular Probes, Eugene, Oreg., USA; diluted ⅓ in RPMI medium) was added to each plate for 60 minutes at 37° C., 5% CO2. Coverslips were transferred to porcelain holders, washed with PBS, fixed in methanol/acetone (1:1), washed with PBS, and incubated in 5% BSA/PBS for 30 minutes at room temperature. To denature DNA, coverslips were placed in 0.1N HCL/1% Triton X-100 for 10 minutes at room temperature. After washing in PBS, cells were incubated with Alexa Fluor 488 anti-BrdU antibody (Molecular Probes, Eugene, Oreg.; diluted 1/20 in 5% BSA/PBS) for 60 minutes at room temperature. Cells were washed in PBS and incubated with Hoechst (diluted 1/1000 in PBS) in the dark at room temperature. After washing in PBS, cells were dipped in dH2O and drained onto Kim Wipes. SlowFade mounting medium (Molecular Probes, Eugene, Oreg.) was added to a glass slide and coverslips were placed face down onto slides and sealed with clear nail polish. Cells were viewed at the Center for Cell Analysis and Modeling, University of Connecticut Health Center, Farmington, Conn., with an Axioplan CCD Microscope equipped with a 40×1.3 NA FL objective lens, equipped with a Photometrics PXL-EEV37 high speed digital cooled CCD camera. Molecular Devices Metamorph was used for image acquisition.
Cells were plated on 8-35 mm plates that contained base agar with and without 2% methyl sulfone. To make base agar, 1% agar (DNA grade; Difco Bacto Agar; Becton Dickenson and Company, Sparks, Md.), was mixed in water at room temperature, melted in a microwave, and cooled to 40° C. before using. For drug plates, 1% agar was combined (1:1) with 4% methyl sulfone in 2×RPMI medium with sodium bicarbonate supplemented with 10% FBS and 5% penicillin/streptomycin. For control plates, 1% agar was combined (1:1) with 2×RMPI medium. Agar +/−2% methyl sulfone was added to appropriate 35 mm tissue culture plates and stored overnight at 4° C. The next day top agar and cells were placed on top of the base agar. Top agar was made with 0.66% agar in water. The agar was melted in a microwave, cooled, and stored at 40° C. 2×RPMI medium and 4% methyl sulfone was also stored at 40° C. Cells were trypsinized and counted for a final concentration of 5×10^3 cells/plate. Cell counts were adjusted to 2×10^5 cells/ml and 0.05 ml of the cell suspension was added to 15 ml centrifuge tubes (2 each). Base agar plates were removed from 4° C. and allowed to warm to room temperature for approximately 30 minutes prior to plating. For plating control cells, 2×RPMI medium and 0.66% agar were added to the tube of cell suspension, gently mixed, and placed on top of control base agar plates. For plating cells in 2% methyl sulfone, 4% methyl sulfone (in 2×RMPI medium) and 0.66% agar was added to the tube of cell suspension, mixed gently, and placed on top of the drug base agar plates. Cells were incubated in the 37° C., 5% CO2 incubator for 10-14 days. Plates were stained with 0.005% crystal violet for 1 hour. Colonies were photographed and counted with a dissecting microscope. […]

melanoma cells = assay: Cell invasion assay (Transwell, ECM gel); type: cell-based, mouse; conditions: 2% methyl sulfone
Protocol: Invasion assays were performed in Transwell chambers (Corning). The 8 μm pore membranes of the upper chambers were coated with ECM gel from Engelbreth-Holm-Swarm murine sarcoma (Sigma), diluted 1:6 with RPMI medium +/−2% methyl sulfone, and placed in a well with RPMI medium +/−2% methyl sulfone. Cells (1×10^5 cells/200 μl) were seeded into appropriate upper chambers in RMPI medium+/−2% methyl sulfone. After 20 hours of incubation at 37° C., cells were removed from top surface of the chamber and filters were fixed with 5% glutaraldeyde. Cells on the lower surface of the filter were stained with a 0.5% solution of toluidine blue. Membranes of inserts were removed with a razor, mounted between a glass slide and a coverslip, and held in place with scotch tape. Cells were photographed and counted at the Center for Cell Analysis and Modeling, University of Connecticut Health Center, Farmington, Conn., with an Axioplan CCD Microscope equipped with a 40×1.3 NA FL objective lens and high speed digital cooled CCD camera via Metamorph image acquisition and analysis software (Universal Imaging Corp., Downington, Pa.). All assays were performed in triplicate.
A second classic characteristic of metastatic cells is their ability to migrate through an extracellular matrix. We determined whether methyl sulfone altered this ability in melanoma cells. […]

[2] = tested on: B-cells from healthy volunteers; assay: Apoptosis of normal B-cells by Flow Cytometry; type: cell-based, human; conditions: 10% methyl sulfone, 20 hours
Protocol: Blood was drawn from healthy volunteers and white blood cells (e.g., lymphocytes, neutrophils) were enriched using Ficoll-Plaque. Cells were incubated in Petri dishes containing MEM with 7% fetal calf serum in a CO2 (5%) incubator at 37° C.; Methyl sulfone was present at concentrations of 0, 3, 6, or 10%. After 20 hours, cells were incubated with antibodies specific to T-lymphocytes (CD3 and CD4 T-cells), B-lymphocytes (B-cells) and neutrophils, and the percent of apoptotic cells was determined by Flow Cytometry. This is a technique that identifies specific cell types (e.g., CD3 T-cells, CD4 T-cells, B-cells, neutrophils) within a mixed population of blood cells, and then determines whether the cells are alive or apoptotic.
(§1) After 20 hours, cells were incubated with fluorescent antibodies to identify T-cells, B-cells and neutrophils, and then processed by Flow Cytometry (FIG. 15).

CEM leukemic lymphocytes = assay: Apoptosis of leukemic lymphocytes by Flow Cytometry; type: cell-based, human
Protocol: CEM leukemic lymphocytes were also incubated in the presence or absence of 10% methyl sulfone.
as §1

[3] = 20° C.; cited from earlier work

methyl sulfone
DNA synthesis ([1]; 2% methyl sulfone): markedly reduced | cell growth anchorage dependence ([1]; 2% methyl sulfone): anchorage-dependent | contact inhibition ([1]; 2% methyl sulfone): contact inhibited | migration of cells through an extracellular matrix ([1]; 2% methyl sulfone): inhibited | mitochondrial activity ([1]; 2% methyl sulfone): decreased | senescence ([1]; 2% methyl sulfone): became senescent | wound healing ([1]; 2% methyl sulfone): proceeded normally | methyl sulfone concentration inducing apoptosis in breast cancer cells ([1]; breast cancer cells): above 2% | cells that migrated through the extracellular matrix (melanoma cells): none and unable to pass through the membrane | effect on B-cells [2]: unharmed | CEM leukemic lymphocytes killed (CEM leukemic lymphocytes; 10% methyl sulfone, 20 hours): 92% | leukemic cells induced into apoptosis (CEM leukemic lymphocytes; summary in the description, concentration not given): more than 90% | approximate water solubility [3]: ~150 mg/mL
